Holding throughout (format): physicochemical
Data set [1] in a line: Solid-form stability on drying under vacuum, resulting form by XRPD analysis. The procedure: (§1) X-ray powder diffraction (XRPD) analyses were performed using the following instruments & methods:
(§2) A. Shimadzu XRD-6000 X-ray powder diffractometer using Cu Kα radiation. The instrument was equipped with a long fine focus X-ray tube. The tube voltage and amperage were set to 40 kV and 40 mA, respectively. The divergence and scattering slits were set at 1° and the receiving slit was set at 0.15 mm. Diffracted radiation was detected by a NaI scintillation detector. A θ-2θ continuous scan at 3°/min (0.4 sec/0.02° step) from 2.5 to 40° 2θ was used. A silicon standard was analyzed to check the instrument alignment. Data were collected and analyzed using XRD-6000 v. 4.1. Samples were prepared for analysis by placing them in a sample holder.
(§3) B. Inel XRG-3000 diffractometer, equipped with a CPS (Curved Position Sensitive) detector with a 2 Orange of 120°. Real time data were collected using Cu—Kα radiation starting at approximately 4° 2θ at a resolution of 0.03° 2θ. The tube voltage and amperage were set to 40 kV and 30 mA, respectively. The monochromator slit was set at 5 mm by 80 μm or 160 μm. […] Samples were prepared for analysis by packing them into thin-walled glass capillaries. Each capillary was mounted onto a goniometer head that is motorized to permit spinning of the capillary during data acquisition. The acquisition time was between 5 to 10 min. Instrument calibration was performed using a silicon reference standard.
(§4) D. Bruker D-8 Discover diffractometer and Bruker's General Area Diffraction Detection System (GADDS, v. 4.1.20). An incident beam of Cu—Kα radiation was produced using a fine-focus tube (40 kV, 40 mA), a Gobel mirror, and a 0.5 mm double-pinhole collimator. The samples were positioned for analysis by securing the well plate to a translation stage and moving each sample to intersect the incident beam. Alternatively, the sample was packed between 3-micron thick films to form a portable disc-shaped specimen, and the specimen was loaded in a holder secured to a translation stage. The samples were analyzed using a transmission geometry. The incident beam was scanned and rastered over the sample during the analysis to optimize orientation statistics. A beam-stop was used to minimize air scatter from the incident beam at low angles. Diffraction patterns were collected using a Hi-Star area detector located 15 cm from the sample and processed using GADDS. The intensity in the GADDS image of the diffraction pattern was integrated using a step size of 0.04° 2θ. The integrated patterns display diffraction intensity as a function of 2θ. Prior to the analysis a silicon standard was analyzed to verify the Si 111 peak position.
(§5) E. Peak Picking Methods. Any XRPD files generated from Inel or Bruker XRPD instruments were converted to Shimadzu .raw file using File Monkey version 3.0.4. The Shimadzu .raw file was processed by the Shimadzu XRD-6000 version 4.1 software to automatically find peak positions. The “peak position” means the maximum intensity of a peaked intensity profile. The following processes were used with the Shimadzu XRD-6000 “Basic Process” version 2.6 algorithm: • Smoothing was done on all patterns. • The background was subtracted to find the net, relative intensity of the peaks. • A peak from Cu K alpha2 (1.5444 Å) wavelength was subtracted from the peak generated by Cu K alpha1 (1.5406 Å) peak at 50% intensity for all patterns. Differential Scanning Calorimetry

Data set [2] in a line: Solid-form stability on storage, resulting form by XRPD analysis. Conditions: for Form indicated by XRPD analysis after storage / Form converted to during storage: hydrochloride; for Form converted to during storage: during storage (summary statement, conditions not given). The procedure:
as §1, §2, §3, §4, §5

Data set [3] can be described thus: Solid-form stability on heating, resulting form by XRPD analysis. The procedure:
as §1, §2, §3
C. Shimadzu XRD-6000 X-ray powder diffractometer equipped with an Anton Paar HTK 1200 high temperature stage (Variable-temperature XRPD (VT-XRPD)). The sample was packed in a ceramic holder and analyzed form 2.5 to 40° 2θ at 3°/min (0.4 sec/0.02° step). The heating rate was 10° C./min. A silicon standard was analyzed to check the instrument alignment. Temperature calibration was performed using vanillin and sulfapyridine USP melting point standards. Data were collected and analyzed using XPD-6000 v.4.1. The system was kept under a purge of nitrogen during the analysis.
as §4
E. Peak Picking Methods. Any XRPD files generated from Inel or Bruker XRPD instruments were converted to Shimadzu .raw file using File Monkey version 3.0.4. The Shimadzu .raw file was processed by the Shimadzu XRD-6000 version 4.1 software to automatically find peak positions. The “peak position” means the maximum intensity of a peaked intensity profile. The following processes were used with the Shimadzu XRD-6000 “Basic Process” version 2.6 algorithm: • Smoothing was done on all patterns. • The background was subtracted to find the net, relative intensity of the peaks. • A peak from Cu K alpha2 (1.5444 Å) wavelength was subtracted from the peak generated by Cu K alpha1 (1.5406 Å) peak at 50% intensity for all patterns. […]

The mark [4] stands for this setting: dried under vacuum at room temperature for less than one day, hydrochloride.
Setting [5] is: stored two months, ambient temperature and humidity.
Setting [6] is: stored five (5) days, about 40° C., about 89% relative humidity.
Where [7] appears, read: stored five (5) days, about 60° C., about 75% relative humidity.
Where [8] appears, read: stored five (5) days, 2-8° C., about 96% relative humidity.
Setting [9] is: under vacuum at room temperature for about four (4) days, hydrochloride.
Where [10] appears, read: dried about 14 hours under vacuum at about 65° C., hydrochloride.

Entries after “also recorded” stand apart in the source; their conditions may differ.

For `Cc1ccsc1C(=CCCN1CCC[C@@H](C(=O)O)C1)c1sccc1C.Cl` [Form AA, tiagabine hydrochloride], in data set [1] (setting [4]), the “Form indicated by XRPD analysis after drying” value (“Form indicated … after drying” for short) is given as “Form AA”.
Turning to `Cc1ccsc1C(=CCCN1CCC[C@@H](C(=O)O)C1)c1sccc1C.Cl` [Form C, tiagabine hydrochloride], in data set [2] (ambient temperature and humidity), the “Time stable when stored” value is given as 2 months. In addition, the “Form indicated by XRPD analysis after storage” value (“Form indicated … after storage” below) in data set [2] (setting [5]) is “tiagabine HCl Form C”.
For `Cc1ccsc1C(=CCCN1CCC[C@@H](C(=O)O)C1)c1sccc1C.Cl` [Form D containing a minor amount of Form B] [tiagabine hydrochloride], the “Form indicated … after storage” value in data set [2] (setting [6]) was “a mixture of tiagabine HCl Form B and a trace of Q”; in data set [2] (setting [7]), “tiagabine HCl Form B and a trace of Q”.
`Cc1ccsc1C(=CCCN1CCC[C@@H](C(=O)O)C1)c1sccc1C.Cl` [Form D, tiagabine hydrochloride]: the “Form converted to during storage” value in data set [2] is “tiagabine hydrochloride Form B, sometimes mixed with tiagabine hydrochloride Form Q”. Further, the “Form indicated … after storage” value in data set [2] (setting [8]) is “a mixture of tiagabine HCl Forms B and Q”; in data set [2] (setting [5]), “a mixture of tiagabine HCl Forms Q and B”. For the same compound, the “Form indicated … after drying” value in data set [1] (setting [4]) is recorded as “a mixture of Form D containing a minor amount of Form A”.
As to `Cc1ccsc1C(=CCCN1CCC[C@@H](C(=O)O)C1)c1sccc1C.Cl` [Form H, tiagabine hydrochloride], the “Form indicated by XRPD analysis after heating” value (“Form indicated … after heating” below) in data set [3] (heated at 90-95° C. for about 10 minutes, hydrochloride) is “Form Q containing a minor amount of Form B”. The “Form indicated … after drying” value in data set [1] (setting [9]) is reported as “Form Q”.
Consider `Cc1ccsc1C(=CCCN1CCC[C@@H](C(=O)O)C1)c1sccc1C.Cl` [Form I, tiagabine hydrochloride], for which the “Form converted to during storage” value in data set [2] is “a mixture of tiagabine hydrochloride Forms S and B”. Besides, the “Form indicated … after storage” value in data set [2] (setting [5]) was “a mixture of tiagabine HCl Forms S and B; also recorded: a mixture of Form S+Form B”.
`Cc1ccsc1C(=CCCN1CCC[C@@H](C(=O)O)C1)c1sccc1C.Cl` [Form J, tiagabine hydrochloride]: in data set [2], the “Form converted to during storage” value was “a mixture of tiagabine hydrochloride Forms Q and B”. For the same compound, in data set [2] (setting [5]), the “Form indicated … after storage” value is “a mixture of tiagabine HCl Forms Q and B”.
As to `Cc1ccsc1C(=CCCN1CCC[C@@H](C(=O)O)C1)c1sccc1C.Cl` [Form M, tiagabine hydrochloride], the “Form converted to during storage” value in data set [2] was “a mixture of tiagabine hydrochloride Forms B and Q”. Further, the “Form indicated … after storage” value in data set [2] (setting [5]) is “a mixture of tiagabine HCl Forms B and Q”.
On to `Cc1ccsc1C(=CCCN1CCC[C@@H](C(=O)O)C1)c1sccc1C.Cl` [Form P containing Form B, tiagabine hydrochloride], for which the “Form indicated … after storage” value in data set [2] (setting [8]) was “a mixture of tiagabine HCl Forms P and B”. Moreover, the “Form indicated … after drying” value in data set [1] (setting [10]) is “a mixture of tiagabine Form P and B”.
As for `Cc1ccsc1C(=CCCN1CCC[C@@H](C(=O)O)C1)c1sccc1C.Cl` [Form P containing a minor amount of Form B] [tiagabine hydrochloride], the “Form indicated … after drying” value in data set [1] (dried about 15 hours under vacuum at 40-95° C.) was “a mixture of tiagabine HCl Forms P and B”; in data set [1] (setting [9]) it was “a mixture of tiagabine HCl Forms P and B”.
In the case of `Cc1ccsc1C(=CCCN1CCC[C@@H](C(=O)O)C1)c1sccc1C.Cl` [Form P, tiagabine hydrochloride], the “Form converted to during storage” value in data set [2] is listed as “Form B”. Besides, the “Form indicated … after storage” value in data set [2] (setting [6]) and in data set [2] (setting [7]) was “tiagabine HCl Form B” throughout.
With `Cc1ccsc1C(=CCCN1CCC[C@@H](C(=O)O)C1)c1sccc1C.Cl` [Form S mixed with Form B, tiagabine hydrochloride], the “Form indicated … after drying” value in data set [1] (setting [10]) was “a mixture of tiagabine HCl Forms S and B”.
Regarding `Cc1ccsc1C(=CCCN1CCC[C@@H](C(=O)O)C1)c1sccc1C.Cl` [Form T, tiagabine hydrochloride], in data set [3] (heated to about 115-120° C. for approximately 10 minutes), the “Form indicated … after heating” value is “tiagabine HCl Form B”. Further, the “Form indicated … after drying” value in data set [1] (setting [9]) is “tiagabine HCl Form C”.
With `Cc1ccsc1C(=CCCN1CCC[C@@H](C(=O)O)C1)c1sccc1C.Cl` [Form Y, tiagabine hydrochloride], the “Form indicated … after heating” value in data set [3] (heated at 100-110° C. for about 10 minutes) is reported as “Form B containing a minor amount of Form Q”. In data set [1] (setting [4]), the “Form indicated … after drying” value is on record as “Form Y”.
As to `Cc1ccsc1C(=CCCN1CCC[C@@H](C(=O)O)C1)c1sccc1C.Cl` [Form Z, tiagabine hydrochloride], in data set [3] (heated at 90-95° C. for about 10 minutes, listed as From Z, hydrochloride), the “Form indicated … after heating” value is “a mixture of Forms B and Q”.

Source of the values: patent US20080064727A1, “Crystalline forms of tiagabine hydrochloride” (Cephalon, Inc., priority 2006, published 2008).
